Measured values taken from PubChem BioAssay (NCI).
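Test compounds were applied to cells in 96-well plates for 48 hours at 5 doses. TGI: concentration producing complete growth inhibition.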

Tests used:
Assay in all cases: DTP human tumour cell line panel, 48 h
NCI-H226 lung = tested on: NCI-H226 lung
MOLT-4 leukemia = tested on: MOLT-4 leukemia
OVCAR-3 ovarian = tested on: OVCAR-3 ovarian
HS 578T breast = tested on: HS 578T breast
SK-OV-3 ovarian = tested on: SK-OV-3 ovarian
MALME-3M melanoma = tested on: MALME-3M melanoma
NCI-H23 lung = tested on: NCI-H23 lung
KM12 colon = tested on: KM12 colon
XF 498 CNS = tested on: XF 498 CNS
MDA-N = tested on: MDA-N
HL-60(TB) leukemia = tested on: HL-60(TB) leukemia
DU-145 prostate = tested on: DU-145 prostate
OVCAR-8 ovarian = tested on: OVCAR-8 ovarian
ACHN renal = tested on: ACHN renal
DMS 273 small cell lung = tested on: DMS 273 small cell lung
MDA-MB-231 breast = tested on: MDA-MB-231 breast
U251 CNS = tested on: U251 CNS
CCRF-CEM leukemia = tested on: CCRF-CEM leukemia
HOP-92 NSCLC = tested on: HOP-92 NSCLC
HT29 colon = tested on: HT29 colon
SN12C renal = tested on: SN12C renal
HCT-116 colon = tested on: HCT-116 colon
RPMI-8226 leukemia = tested on: RPMI-8226 leukemia
OVCAR-5 ovarian = tested on: OVCAR-5 ovarian
IGROV1 ovarian = tested on: IGROV1 ovarian
UACC-257 melanoma = tested on: UACC-257 melanoma
SR leukemia = tested on: SR leukemia
M14 melanoma = tested on: M14 melanoma
786-0 renal = tested on: 786-0 renal
SF-539 CNS = tested on: SF-539 CNS
COLO 205 colon = tested on: COLO 205 colon
SF-295 CNS = tested on: SF-295 CNS
SNB-19 CNS = tested on: SNB-19 CNS
DMS 114 small cell lung = tested on: DMS 114 small cell lung
A549 NSCLC = tested on: A549 NSCLC
HOP-62 NSCLC = tested on: HOP-62 NSCLC
SK-MEL-28 melanoma = tested on: SK-MEL-28 melanoma
PC-3 prostate = tested on: PC-3 prostate
UO-31 renal = tested on: UO-31 renal
UACC-62 melanoma = tested on: UACC-62 melanoma
MCF7 breast = tested on: MCF7 breast
NCI/ADR-RES ovarian = tested on: NCI/ADR-RES ovarian
HCT-15 colon = tested on: HCT-15 colon
KM20L2 colon = tested on: KM20L2 colon
DLD-1 colon = tested on: DLD-1 colon
LXFL 529 NSCLC = tested on: LXFL 529 NSCLC
SK-MEL-2 melanoma = tested on: SK-MEL-2 melanoma
T-47D breast = tested on: T-47D breast
SK-MEL-5 melanoma = tested on: SK-MEL-5 melanoma
BT-549 breast = tested on: BT-549 breast
NCI-H522 lung = tested on: NCI-H522 lung
MDA-MB-435 = tested on: MDA-MB-435
SF-268 CNS = tested on: SF-268 CNS
NCI-H460 lung = tested on: NCI-H460 lung
CAKI-1 renal = tested on: CAKI-1 renal
M19-MEL melanoma = tested on: M19-MEL melanoma
SW-620 colon = tested on: SW-620 colon
TK-10 renal = tested on: TK-10 renal
A498 renal = tested on: A498 renal
EKVX NSCLC = tested on: EKVX NSCLC
HOP-18 NSCLC = tested on: HOP-18 NSCLC
LOX IMVI melanoma = tested on: LOX IMVI melanoma
RXF 393 renal = tested on: RXF 393 renal
OVCAR-4 ovarian = tested on: OVCAR-4 ovarian
SNB-78 CNS = tested on: SNB-78 CNS
K-562 leukemia = tested on: K-562 leukemia
HCC-2998 colon = tested on: HCC-2998 colon
RXF-631 renal = tested on: RXF-631 renal

**Q.** Which results are given for `O=C(CSc1ncnc2nc[nH]c12)c1ccccc1`?
**A.** TGI (NCI-H226 lung): > 100 µM; TGI (MOLT-4 leukemia): > 100 µM; TGI (OVCAR-3 ovarian): > 100 µM; TGI (HS 578T breast): > 100 µM; TGI (SK-OV-3 ovarian): > 100 µM; TGI (MALME-3M melanoma): > 100 µM; TGI (NCI-H23 lung): > 100 µM; TGI (KM12 colon): > 57.1 µM; TGI (XF 498 CNS): > 100 µM; TGI (MDA-N): > 100 µM; TGI (HL-60(TB) leukemia): > 100 µM; TGI (DU-145 prostate): > 100 µM; TGI (OVCAR-8 ovarian): > 100 µM; TGI (ACHN renal): > 100 µM; TGI (DMS 273 small cell lung): > 100 µM; TGI (MDA-MB-231 breast): > 100 µM; TGI (U251 CNS): > 100 µM; TGI (CCRF-CEM leukemia): > 100 µM; TGI (HOP-92 NSCLC): > 100 µM; TGI (HT29 colon): > 100 µM; TGI (SN12C renal): > 100 µM; TGI (HCT-116 colon): > 100 µM; TGI (RPMI-8226 leukemia): > 100 µM; TGI (OVCAR-5 ovarian): > 100 µM; TGI (IGROV1 ovarian): > 100 µM; TGI (UACC-257 melanoma): > 100 µM; TGI (SR leukemia): > 100 µM; TGI (M14 melanoma): > 100 µM; TGI (786-0 renal): > 100 µM; TGI (SF-539 CNS): > 100 µM; TGI (COLO 205 colon): > 100 µM; TGI (SF-295 CNS): > 100 µM; TGI (SNB-19 CNS): > 100 µM; TGI (DMS 114 small cell lung): > 100 µM; TGI (A549 NSCLC): > 100 µM; TGI (HOP-62 NSCLC): > 100 µM; TGI (SK-MEL-28 melanoma): > 100 µM; TGI (PC-3 prostate): > 100 µM; TGI (UO-31 renal): > 100 µM; TGI (UACC-62 melanoma): > 100 µM; TGI (MCF7 breast): > 100 µM; TGI (NCI/ADR-RES ovarian): > 100 µM; TGI (HCT-15 colon): > 100 µM; TGI (KM20L2 colon): > 100 µM; TGI (DLD-1 colon): > 100 µM; TGI (LXFL 529 NSCLC): > 100 µM; TGI (SK-MEL-2 melanoma): > 57.8 µM; TGI (T-47D breast): > 100 µM; TGI (SK-MEL-5 melanoma): > 100 µM; TGI (BT-549 breast): > 100 µM; TGI (NCI-H522 lung): > 100 µM; TGI (MDA-MB-435): > 100 µM; TGI (SF-268 CNS): > 100 µM; TGI (NCI-H460 lung): > 100 µM; TGI (CAKI-1 renal): > 100 µM; TGI (M19-MEL melanoma): > 100 µM; TGI (SW-620 colon): > 100 µM; TGI (TK-10 renal): > 100 µM; TGI (A498 renal): > 100 µM; TGI (EKVX NSCLC): > 100 µM; TGI (HOP-18 NSCLC): > 100 µM; TGI (LOX IMVI melanoma): > 100 µM; TGI (RXF 393 renal): > 100 µM; TGI (OVCAR-4 ovarian): > 100 µM; TGI (SNB-78 CNS): > 100 µM; TGI (K-562 leukemia): > 100 µM

**Q.** Which results are given for `N#CCC(=O)N1CCCOCCC1`?
**A.** TGI (MOLT-4 leukemia): 7.36 µM; TGI (SK-OV-3 ovarian): > 100 µM; TGI (MALME-3M melanoma): > 100 µM; TGI (NCI-H23 lung): > 100 µM; TGI (KM12 colon): > 100 µM; TGI (HL-60(TB) leukemia): > 100 µM; TGI (ACHN renal): > 100 µM; TGI (DMS 273 small cell lung): > 100 µM; TGI (U251 CNS): > 100 µM; TGI (CCRF-CEM leukemia): > 100 µM; TGI (HT29 colon): > 100 µM; TGI (SN12C renal): > 100 µM; TGI (HCT-116 colon): > 100 µM; TGI (OVCAR-5 ovarian): > 100 µM; TGI (IGROV1 ovarian): > 100 µM; TGI (UACC-257 melanoma): > 100 µM; TGI (M14 melanoma): > 100 µM; TGI (786-0 renal): > 100 µM; TGI (SF-539 CNS): > 100 µM; TGI (COLO 205 colon): 42.2 µM; TGI (SF-295 CNS): > 100 µM; TGI (SNB-19 CNS): > 100 µM; TGI (DMS 114 small cell lung): > 100 µM; TGI (A549 NSCLC): > 100 µM; TGI (HOP-62 NSCLC): > 100 µM; TGI (SK-MEL-28 melanoma): > 100 µM; TGI (UO-31 renal): > 100 µM; TGI (UACC-62 melanoma): > 100 µM; TGI (HCC-2998 colon): > 100 µM; TGI (HCT-15 colon): 37.7 µM; TGI (KM20L2 colon): > 100 µM; TGI (DLD-1 colon): > 100 µM; TGI (LXFL 529 NSCLC): > 100 µM; TGI (SK-MEL-2 melanoma): > 100 µM; TGI (SK-MEL-5 melanoma): > 100 µM; TGI (RXF-631 renal): > 100 µM; TGI (SF-268 CNS): > 100 µM; TGI (NCI-H460 lung): > 100 µM; TGI (CAKI-1 renal): > 100 µM; TGI (M19-MEL melanoma): > 100 µM; TGI (SW-620 colon): 24.3 µM; TGI (TK-10 renal): > 100 µM; TGI (A498 renal): > 100 µM; TGI (EKVX NSCLC): > 100 µM; TGI (LOX IMVI melanoma): > 100 µM; TGI (RXF 393 renal): > 100 µM; TGI (OVCAR-4 ovarian): > 100 µM; TGI (SNB-78 CNS): > 100 µM; TGI (K-562 leukemia): > 100 µM
